From patent publication US20070167412A1, “HALOCOMBSTATINS AND METHODS OF SYNTHESIS THEREOF” (ARIZONA BOARD OF REGENTS, priority 2003, published 2007)
Converted amounts (≈) assume the structure as drawn. Like-named read-outs stand apart in the source and are kept apart here.

Legend:
[1] = system: tubulin; assay: inhibition of [3H]colchicine binding to tubulin; settings: 1.0 μM tubulin, 5.0 μM [3H]colchicine, inhibitor at 1.0 μM, 10 minutes at 37° C.
Method: (§1) Tubulin polymerization was evaluated by turbidimetry at 350 nm using Beckman DU7400/7500 spectrophotometers as described in detail elsewhere. […] Varying concentrations of drug were preincubated with 10 μM:M ([…]) purified tubulin (See Hamel, E., et al., Separation of Active Tubulin and Microtubule-associated Proteins by Ultracentrifiigation and Isolation of a Component Causing the Formation of Microtubule Bundles, Biochemistry 1984, 23, 4173-4184). Samples were chilled on ice, GTP (0.4 mM) was added, and polymerization was followed at 30° C. The parameter measured was extent of the reaction after 20 minutes. Coichicine binding was measured as described in detail previously. Reaction mixtures contained 1.0 μM :M tubulin, 5.0:M, [^3H]colchicine (from Dupont), and inhibitor at 1.0 μM:M. Incubation was for 10 minutes at 37° C.

[2] = system: T1, purified tubulin; assay: inhibition of tubulin polymerization (turbidimetry); assay type: biochemical
T1 construct: other: 10 μM tubulin, GTP 0.4 mM, 30° C., extent after 20 minutes
Method: as §1
Tubulin Evaluations: Tubulin polymerization was evaluated by turbidimetry at […] using Beckman DU7400/7500 spectrophotometers as known to one of skill in the art. Varying concentrations of the compound were preincubated with 10 μM. […]

[3] = system: Micrococcus luteus; assay: reference broth microdilution susceptibility assay; assay type: cell-based; settings: Table III
Text: (§2) The halocombstatins of the present invention appear to also have antimicrobial properties. More specifically, they appear to have antifungal and/or antibacterial properties. Antimicrobial evaluation of the halocombstatins involved susceptibility testing performed by the reference broth microdilution assay. The antimicrobial activities of the halocombstatins were very similar, targeting Gram-positive bacteria and the pathogenic fungi Cryptococcus neoformans, and results are shown in Table III.
(§3) (See Pettit, G. R., et al., Antineoplastic Agents 463. Synthesis of Combretastatin A-3 Diphosphates, Anticancer Drug Design 2000, 15, 397-404.) To determine the antimicrobial activity of the present compounds, susceptibility testing was performed by the reference broth microdilution assay. (See National Committee for Clinical Laboratory Standards. Methods for Dilution Antimicrobial Susceptibility Tests for Bacteria that Grow Aerobically. Approved Standard M7-A5. Wayne, P A: NCCLS, 2000. National Committee for Clinical Laboratory Standards. Reference Method for Broth Dilution Antifungal Susceptibility Testing of Yeasts. Aproved Standard M27-A. Wayne, P A: NCCLS, 1997.) The antimicrobial activities of the halocombretastatins of the present invention were very similar, targeting Gram-positive bacteria and Cryptococcus neoformans. This is illustrated in further detail in Table III. Thus, several of the novel compounds of the present invention appear to have potential as antimicrobial agents, such as antifingals and antibacterials.

[4] = system: Streptococcus pneumoniae; assay: reference broth microdilution susceptibility assay; assay type: cell-based; settings: Table III
Text: as §2, §3

[5] = system: Stenotrophomonas maltophilia; assay: reference broth microdilution susceptibility assay; assay type: cell-based; settings: Table III
Text: as §2, §3

[6] = system: Escherichia coli; assay: reference broth microdilution susceptibility assay; assay type: cell-based; settings: Table III
Text: as §2, §3

[7] = system: Cryptococcus neoformans; assay: reference broth microdilution susceptibility assay; assay type: cell-based; settings: Table III
Text: as §2, §3

[8] = system: Candida albicans; assay: reference broth microdilution susceptibility assay; assay type: cell-based; settings: Table III
Text: as §2, §3

[9] = system: Neisseria gonorrhoeae; assay: reference broth microdilution susceptibility assay; assay type: cell-based; settings: Table III
Text: as §2, §3

[10] = system: Enterococcus faecalis; assay: reference broth microdilution susceptibility assay; assay type: cell-based; settings: Table III
Text: as §2, §3

[11] = system: Enterobacter cloacae; assay: reference broth microdilution susceptibility assay; assay type: cell-based; settings: Table III
Text: as §2, §3

[12] = system: Staphylococcus aureus; assay: reference broth microdilution susceptibility assay; assay type: cell-based; settings: Table III
Text: as §2, §3

[13] = system: Colon KM20L2; assay: human cancer cell growth inhibition, sulforhodamine B assay; assay type: cell-based; settings: Table I, 48 hours
Method: (§4) Inhibition of human cancer cell growth was assessed using the National Cancer Institute's standard sulforhodamine B assay. After 48 hours, the plates were fixed with trichloracetic acid, stained with sulforhodamine B and read with an automated microplate reader. […] Inhibition of the mouse leukemia P388 cells was assessed in a 10% horse serum/Fisher medium soution for 24 hours, followed by a 48 hour incubation with serial dilutions of the compounds. Cell growth inhibition (ED50) was then calculated using a Z1 Becleman/Coulter particle counter.

[14] = system: Lung-NSC NCI-H460; assay: as above; assay type: cell-based; settings: Table I, 48 hours
Method: as §4

[15] = system: Pancreas BXPC-3; assay: as above; assay type: cell-based; settings: Table I, 48 hours
Method: as §4

[16] = system: Prostate DU-145; assay: as above; assay type: cell-based; settings: Table I, 48 hours
Method: as §4

[17] = system: CNS SF268; assay: as above; assay type: cell-based; settings: Table I, 48 hours
Method: as §4

[18] = system: Breast MCF-7; assay: as above; assay type: cell-based; settings: Homo sapiens, MCF7; Table I; 48 hours; read-out: Human cancer cell line inhibition (GI50) Breast adn MCF-7
Method: as §4

[19] = system: human umbilical vein endothelial cells (HUVEC); assay: Matrigel cord formation assay; assay type: cell-based; parameters: key to Lengths of Cords: −: No Cords; +: Small; ++: ˜50% of Control; +++: Same as Control; settings: 24 hours, compared to untreated controls
Method: (§5) In vitro Matrigel antiangiogenesis assays were implemented according to the Developmental Therapeutics Program NCI/NIH protocols known to one of skill in the art. Matrigel, a basement membrane matrix, was obtained from BD Biosciences. Growth inhibition and cord formation assays were Conducted using human umbilical vein endothelial cells obtained from GlycoTeCh. HUVEC cells were grown in EGM-2 medium.
(§6) An aliquot of sixty microliters was placed in each well of an ice-cold 96-well plate. The plates were then left for 15 minutes at room temperature, then incubated for 30 minutes at 37° C. to permit the matrigel to polymerize. Meanwhile, HUVEC cells were harvested and diluted to a concentration of 2×10^5 cells/ml. A solution of 100 μL containing the compounds to be tested was added next. After 24 hours incubation, pictures were taken for each concentration using an inverted Nikon Diaphot microscope and D100 digital camera. Drug effect was assessed, compared to untreated controls, by measuring the length of cords formed and number ofjunctions.

[20] = system: human umbilical vein endothelial cells (HUVEC); assay: Matrigel cord formation assay; assay type: cell-based; parameters: key: −: No Junctions; +: Few; ++: ˜50% of Control; +++: Same as Control; settings: 24 hours, compared to untreated controls
Method: as §5, §6

[21] = system: human umbilical vein endothelial cells (HUVEC); assay: Matrigel cord formation assay; assay type: cell-based; parameters: key: −: No Cords; +: Small; ++: ˜50% of Control; +++: Same as Control; settings: 24 hours, compared to untreated controls
Method: as §5, §6

[22] = system: human umbilical vein endothelial cells (HUVEC); assay: HUVEC growth inhibition, sulforhodamine B assay; assay type: cell-based
Method: as §5
The standard sulforhodamine B assay (see Cancer Cell Line Procedures above) was used to evaluate results using HUVEC cells. IC50 or ED50 (drug concentration causing 50% inhibition) was calculated from the plotted data.

[23] = system: KAT-4; assay: human anaplastic thyroid carcinoma cell line inhibition; assay type: cell-based
Method: (§7) Inhibition of human cancer cell growth was assessed using the National Cancer Institute's standard sulforhodamine B assay. After 48 hours, the plates were fixed with trichloracetic acid, stained with sulforhodamine B and read with an automated microplate reader. A growth inhibition of 50% (GI50 or the drug concentration causing a 50% reduction in the net protein increase) was calculated from optical density data with Inmunosoft software. Inhibition of the mouse leukemia P388 cells was assessed in a 10% horse serum/Fisher medium soution for 24 hours, followed by a 48 hour incubation with serial dilutions of the compounds. Cell growth inhibition (ED50) was then calculated using a Z1 Becleman/Coulter particle counter.

[24] = system: SW1736; assay: as above; assay type: cell-based
Method: as §7

## COc1ccc(/C=C\c2cc(Br)c(OC)c(OC)c2)cc1O [Compound 13a, 3-Bromo-4,4′,5-trimethoxy-3′-hydroxy-Z-stilbene]
[1]
  Inhibition of colchicine binding % inhibition ± S.D.: 89 ± 2%
[2]; 10 μM tubulin, GTP 0.4 mM, 30° C., extent after 20 minutes, read-out: Inhibition of polymerization IC50 ± S.D.
  IC50: 1500 ± 200 nM
[3]
  Range of minimum inhibitory concentration, Micrococcus luteus: 32 to 64 µg/mL
[4]
  Range of minimum inhibitory concentration, Streptococcus pneumoniae: * (no inhibition at 64 μg/ml)
[5]
  Range of minimum inhibitory concentration, Stenotrophomonas maltophilia: * (no inhibition at 64 μg/ml)
[6]
  Range of minimum inhibitory concentration, Escherichia coli: * (no inhibition at 64 μg/ml)
[7]
  Range of minimum inhibitory concentration, Cryptococcus neoformans: * (no inhibition at 64 μg/ml)
[8]
  Range of minimum inhibitory concentration, Candida albicans: * (no inhibition at 64 μg/ml)
[9]
  Range of minimum inhibitory concentration, Neisseria gonorrhoeae: 32 to 64 µg/mL
[10]
  Range of minimum inhibitory concentration, Enterococcus faecalis: * (no inhibition at 64 μg/ml)
[11]
  Range of minimum inhibitory concentration, Enterobacter cloacae: * (no inhibition at 64 μg/ml)
[12]
  Range of minimum inhibitory concentration, Staphylococcus aureus: * (no inhibition at 64 μg/ml)
other
  melting point: 108 to 109 °C
[13]; Homo sapiens, KM-20L2, read-out: Human cancer cell line inhibition (GI50) Colon KM20L2
  GI50: 0.086 µg/mL (≈ 0.235 µM)
[14]; Homo sapiens, NCI-H460, read-out: Human cancer cell line inhibition (GI50) Lung-NSC NCI-H460
  GI50: < 0.001 µg/mL
[15]; Homo sapiens, BXPC-3, read-out: Human cancer cell line inhibition (GI50) Pancreas-a BXPC-3
  GI50: 0.16 µg/mL (≈ 0.438 µM)
[16]; Homo sapiens, DU-145, read-out: Human cancer cell line inhibition (GI50) Prostate DU-145
  GI50: < 0.001 µg/mL
[17]; Homo sapiens, SF-268, read-out: Human cancer cell line inhibition (GI50) CNS SF268
  GI50: < 0.001 µg/mL
[18]
  GI50: < 0.001 µg/mL

## COc1ccc(/C=C\c2cc(I)c(OC)c(I)c2)cc1O [Compound 22a, 3,5-diiodo-4,4′-dimethoxy-3′-hydroxy-z-stilbene]
[19]; 0.0001 μg/ml
  Lengths of Cords: +++
[19]; 0.001 μg/ml
  Lengths of Cords: +
[19]; 0.01 μg/ml
  Lengths of Cords: −
[20]; 0.01 μg/ml
  Number of junctions: −
[21]; 0.0001 μg/ml
  Number of junctions: +++
[22]; HUVEC, 0.00001 μg/ml
  Relative % Growth: 87%
[22]; HUVEC, 0.0001 μg/ml
  Relative % Growth: 84%
[22]; HUVEC, 0.001 μg/ml
  Relative % Growth: 8%
[22]; HUVEC, 0.01 μg/ml
  Relative % Growth: 4%
[22]; Homo sapiens, HUVEC, Table V, read-out: Human Umbilical Vein Endothelial Cell (HUVEC) Inhibition Values (GI50)
  GI50: 0.00028 µg/mL (≈ 0.000551 µM)
[23]; Homo sapiens, KAT-4
  GI50: 0.039 to 0.063 µg/mL (≈ 0.0768 to 0.124 µM)
[24]; Homo sapiens, SW-1736
  GI50: 1.2 µg/mL (≈ 2.36 µM)

## Potassium 3,5-dilodo-4,4′dimethoxy-z-stilbene 3′-O-phosphate [Compound S (Table Ia)]
[19]; 0.001 μg/ml
  Lengths of Cords: +++
[19]; 0.1 μg/ml
  Lengths of Cords: −
[20]; 0.1 μg/ml
  Number of junctions: −
[21]; 0.001 μg/ml
  Number of junctions: +++
[22]; HUVEC, 0.0001 μg/ml
  Relative % Growth: 96%
[22]; HUVEC, 0.001 μg/ml
  Relative % Growth: 88%
[22]; HUVEC, 0.01 μg/ml
  Relative % Growth: 33%
[22]; HUVEC, 0.1 μg/ml
  Relative % Growth: 15%
[22]; Table V
  Human Umbilical Vein Endothelial Cell (HUVEC) Inhibition Values (GI50): 0.0049 µg/mL
[23]
  Human Anaplastic Thyroid Carcinoma Cell Line Inhibition Values (GI50) KAT-4: 0.38 to 0.44 µg/mL
[24]
  Human Anaplastic Thyroid Carcinoma Cell Line Inhibition Values (GI50) SW1736: >10 µg/mL

## Potassium 3-iodo-4,4′,5-trimethoxy-z-stilbene 3′-O-phosphate [Compound 20c]
[19]; 0.00001 μg/ml
  Lengths of Cords: +++
[19]; 0.0001 μg/ml
  Lengths of Cords: +++
[19]; 0.001 μg/ml
  Lengths of Cords: ++
[21]; 0.00001 μg/ml
  Number of junctions: +++
[21]; 0.0001 μg/ml
  Number of junctions: +++
[22]; HUVEC, 0.00001 μg/ml
  Relative % Growth: 95%
[22]; HUVEC, 0.0001 μg/ml
  Relative % Growth: 77%
[22]; HUVEC, 0.001 μg/ml
  Relative % Growth: 10%
[22]; HUVEC, 0.01 μg/ml
  Relative % Growth: 1%
[22]; Table V
  Human Umbilical Vein Endothelial Cell (HUVEC) Inhibition Values (GI50): 0.00025 µg/mL
[23]
  Human Anaplastic Thyroid Carcinoma Cell Line Inhibition Values (GI50) KAT-4: 0.37 to 0.43 µg/mL
[24]
  Human Anaplastic Thyroid Carcinoma Cell Line Inhibition Values (GI50) SW1736: >10 µg/mL

## combretastatin A-4 [Compound 1a, reference compound]
[1]
  Inhibition of colchicine binding % inhibition ± S.D.: 81 ± 3%
[2]; text b32, read-out: IC50, inhibition of the polymerization reaction
  IC50: 1800 nM
[13]
  Human cancer cell line inhibition (GI50) Colon KM20L2: 0.061 µg/mL
[14]
  Human cancer cell line inhibition (GI50) Lung-NSC NCI-H460: 0.0006 µg/mL
[15]
  Human cancer cell line inhibition (GI50) Pancreas-a BXPC-3: 0.39 µg/mL
[16]
  Human cancer cell line inhibition (GI50) Prostate DU-145: 0.0008 µg/mL
[17]
  Human cancer cell line inhibition (GI50) CNS SF268: <0.001 µg/mL
